Test results: patent publication EP0503520A1, “Cyclic ketal derivatives” (GLAXO GROUP LIMITED, priority 1991, dated 1992)

Molecular target: T1, squalene synthase (Rattus norvegicus, UniProt Q02769)
T1 construct: incubating rat liver homogenate with various concentrations of the test compound; from tissue; host or cells: rat liver homogenate
T1 sequence (Q02769 1-416): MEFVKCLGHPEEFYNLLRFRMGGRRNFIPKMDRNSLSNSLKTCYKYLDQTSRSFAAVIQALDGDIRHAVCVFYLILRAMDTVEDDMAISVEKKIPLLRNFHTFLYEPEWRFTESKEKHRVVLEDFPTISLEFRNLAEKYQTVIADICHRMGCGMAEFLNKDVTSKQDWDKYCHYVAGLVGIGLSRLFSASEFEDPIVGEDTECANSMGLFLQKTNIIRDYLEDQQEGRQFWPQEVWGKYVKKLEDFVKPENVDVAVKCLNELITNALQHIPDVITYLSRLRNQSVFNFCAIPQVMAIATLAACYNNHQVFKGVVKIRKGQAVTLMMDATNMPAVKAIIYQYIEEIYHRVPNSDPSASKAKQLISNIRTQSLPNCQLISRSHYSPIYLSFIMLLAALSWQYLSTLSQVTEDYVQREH
Assay: Inhibition of squalene synthase in rat liver homogenate with [2-14C]farnesylpyrophosphate as substrate
Assay type: biochemical
Details: 50% inhibition of [14C]squalene production in a 30 minute assay, read-out: IC₅₀
Protocol: Acta, Volume 877, 50-60 (1986) and modified to include measurement of cholesterol by high performance liquid chromatography (h.p.l.c.).
[¹⁴C] Squalene was separated from unreacted substrate on thin layer chromatography plates and determined by liquid scintillation counting. Inhibition of squalene synthase was quantified by incubating rat liver homogenate with various concentrations of the test compound in the presence of [2-¹⁴C] farnesylpyrophosphate. The concentration of compound giving 50% inhibition of [¹⁴C] squalene production in a 30 minute assay was taken as the IC₅₀ value.

| Structure (SMILES) | IC50 [nM] |
| --- | --- |
| C=C(CC[C@]12O[C@H](C(=O)O)[C@@](O)(C(=O)O)[C@](C(=O)O)(O1)[C@H](OC(=O)/C=C/[C@@H](C)C[C@@H](C)CC)[C@H]2O)[C@@H](OC(C)=O)[C@H](C)Cc1ccc(F)cc1 (relative stereo) [Example 1(a), [1S-[1α(4R*,5S*),3α,4β,5α,6α(2E,4R*,6R*),7β]] 1-[4-Acetoxy-6-(4-fluorophenyl)-5-methyl-3-methylenehexyll-4,6,7-trihydroxy-2,8-dioxabicyclo[3.2.1]octane-3,4,5-tricarboxylic acid, 6-(4,6-dimethyl-2-octenoate)] | < 100 |
| C=C(CC[C@]12O[C@H](C(=O)O)[C@@](O)(C(=O)O)[C@](C(=O)O)(O1)[C@H](OC(=O)/C=C/[C@@H](C)C[C@@H](C)CC)[C@H]2O)[C@@H](OC(C)=O)[C@H](C)Cc1cccc(F)c1 (relative stereo) [Example 1(b), [1S-[1α(4R*,5S*),3α,4β,5α,6α(2E,4R*,6R*),7β]] 1-[4-Acetoxy-6-(3-fluorophenyl)-5-methyl-3-methylenehexyl]-4,6,7-trihydroxy-2,8-dioxabicyclo[3.2.1]octane-3,4,5-tricarboxylic acid, 6-(4,6-dimethyl-2-octenoate)] | < 100 |
| C=C(CC[C@]12O[C@H](C(=O)O)[C@@](O)(C(=O)O)[C@](C(=O)O)(O1)[C@H](OC(=O)/C=C/[C@@H](C)C[C@@H](C)CC)[C@H]2O)[C@@H](OC(C)=O)[C@H](C)Cc1ccccc1F (relative stereo) [Example 1(c), [1S-[1α(4R*,5S*),3α,4β,5α,6α(2E,4R*,6R*),7β]] 1-[4-Acetoxy-6-(2-fluorophenyl)-5-methyl-3-methylenehexyl]-4,6,7-trihydroxy-2,8-dioxabicyclo[3.2.1]octane-3,4,5-tricarboxylic acid, 6-(4,6-dimethyl-2-octenoate)] | < 100 |
